Experiments:
Format in all cases: cell-based
[1] = test system: Huh-7 luc/neo HCV replicon cells with conditioned media from PBMC; assay: Interferon production in human PBMC (PBMC-HUH7_EC50), HCV replicon readout with conditioned media; conditions: Homo sapiens, Huh-7; concentration applied to PBMCs giving 50% reduction of replicon luciferase activity
Experimental: Measurement of Interferon Production in Human PBMC (PBMC-HUH7_EC50)
Activation of human TLR7 results in robust production of interferon by plasmacytoid dendritic cells present in human blood. The potential of compounds to induce interferon was evaluated by looking at the antiviral activity in the HCV replicon system upon incubation with conditioned media from peripheral blood mononuclear cells (PBMC). The HCV replicon assay is based on a bicistronic expression construct, as described by Lohmann et al. (Science (1999) 285: 110-113; Journal of Virology (2003) 77: 3007-15 3019) with modifications described by Krieger et al. (Journal of Virology (2001) 75: 4614-4624). The assay utilized the stably transfected cell line Huh-7 luc/neo harboring an RNA encoding a bicistronic expression construct comprising the wild type NS3-NS5B regions of HCV type 1b translated from an Internal Ribosome Entry Site (IRES) from encephalomyocarditis virus (EMCV), preceded by a reporter gene (Firefly-luciferase) and a selectable marker gene (neoR, neomycine phosphotransferase). The construct is flanked by 5′ and 3′ NTRs (non-translated regions) from HCV type 1b. Continued culture of the replicon cells in the presence of G418 (neoR) is dependent on the replication of the HCV RNA. The stably transfected replicon cells that replicate HCV RNA autonomously and to high levels, encoding inter alia luciferase, were used for profiling of the conditioned cell culture media. Briefly, PBMCs were prepared from buffy coats of at least two donors using a standard Ficoll centrifugation protocol. Isolated PBMCs were resuspended in RPMI medium supplemented with 10% human AB serum and 2×10^5 cells/well were dispensed into 384-well plates containing compounds (70 μL total volume). After overnight incubation, […] was transferred to 384-well plates containing 2.2×10^3 replicon cells/well in 30 μL (plated the day before). Following 24 hours of incubation, replication was measured by assaying luciferase activity using 40 μL/well Steady Lite Plus substrate (Perkin Elmer) and measured with ViewLux ultraHTS microplate imager (Perkin Elmer). The inhibitory activity of each compound on the Huh7-luc/neo cells were reported as EC50 values, defined as the compound concentration applied to the PBMCs resulting in a 50% reduction of luciferase activity which in turn indicates the degree of replication of the replicon RNA on transfer of a defined amount of PBMC culture medium. Recombinant interferon α-2a (Roferon-A) was used as a standard control compound.

[2] = test system: HEK-ISRE-luc cells with conditioned media from PBMC; assay: Interferon production in human PBMC (PBMC HEK-ISRE-luc LEC); conditions: Homo sapiens, PBMC; lowest effective concentration; read-out: PBMC HEK-ISRE-luc (LEC)
Experimental: Measurement of Interferon Production in Human PBMC (PBMC HEK-ISRE-Luc LEC)
Activation of human TLR7 results in robust production of interferon by plasmacytoid dendritic cells present in human blood. The potential of compounds to induce interferon was evaluated by determination of interferon in the conditioned media from peripheral blood mononuclear cells (PBMC). The presence of interferon in the samples was determined, using an interferon reporter cell line stably expressing an interferon-stimulated responsive elements (ISRE)-luc reporter construct. The ISRE element with sequence GAAACTGAAACT (SEQ ID NO: 1) is highly responsive to the STAT1-STAT2-IRF9 transcription factor, which becomes activated upon binding of IFN-I to the IFN receptor. Briefly, PBMCs were prepared from buffy coats of at least two donors using a standard Ficoll centrifugation protocol. Isolated PBMCs were resuspended in RPMI medium supplemented with 10% human AB serum and 2×10^5 cells/well were dispensed into 384-well plates containing compounds (70 μL total volume). After overnight incubation of the PBMCs with the compounds, 10 μL of supernatant was transferred to 384-well plates containing 5×10^3 HEK-ISRE-luc cells/well in 30 μL (plated the day before). Following 24 hours of incubation, activation of the ISRE elements was measured by assaying luciferase activity using 40 μL/well Steady Lite Plus substrate (Perkin Elmer) and measured with ViewLux ultraHTS microplate imager (Perkin Elmer). The stimulating activity of each compound on the HEK-ISRE-luc cells was reported as LEC. The LEC in turn indicates the degree of ISRE activation on transfer of a defined amount of PBMC culture medium.
Recombinant interferon alfa-2a (Roferon-A) was used as a standard control compound.

human TLR7 dIRR2 mutant [3] = assay: Reporter assay for TLR7 activity, HEK293 transfected with mutant TLR7 (dIRR2 deletion) and NFκB-luc; conditions: lowest effective concentration; 48 h transfection
human TLR7 [4] = target: T1, human TLR7 (Homo sapiens (Human), UniProt Q9NYK1); assay: Reporter assay for TLR7 activity, HEK293 transiently transfected with wild type TLR7 and NFκB-luc; conditions: lowest effective concentration; 48 h transfection
human TLR7 [5] = target: T1, human TLR7; assay: as above; conditions: lowest effective concentration; 24 h transfection
Experimental: (§1) Reporter Assays for Assessment of TLR7 Activity (24 h)
(§2) The ability of compounds to activate human TLR7 was assessed in a cellular reporter assay using HEK293 cells transiently transfected with a TLR7 or TLR8 expression vector and NFκB-luc reporter construct. In one instance the TLR expression construct expresses the respective wild type sequence or a mutant sequence comprising a deletion in the second leucine-rich repeat (dIRR2) of the TLR.
(§3) Briefly, HEK293 cells were grown in culture medium (DMEM supplemented with 10% FCS and 2 mM Glutamine). For transfection of cells in 10 cm dishes, cells were detached with Trypsin-EDTA, transfected with a mix of CMV-TLR7 or TLR8 plasmid (750 ng), NFκB-luc plasmid (375 ng) and a transfection reagent and incubated 24 hours or 48 hours respectively at 37° C. in a humidified 5% CO2 atmosphere. Transfected cells were then detached with Trypsin-EDTA, washed in PBS and resuspended in medium to a density of 1.67×10^5 cells/mL. Thirty microliters of cells were then dispensed into each well in 384-well plates, where 10 μL of compound in 4% DMSO was already present. Following 6 hours incubation at 37° C., 5% CO2, the luciferase activity was determined by adding 15 μl of Steady Lite Plus substrate (Perkin Elmer) to each well and readout performed on a ViewLux ultraHTS microplate imager (Perkin Elmer). Dose response curves were generated from measurements performed in quadruplicates. Lowest effective concentrations (LEC) values, defined as the concentration that induces an effect which is at least two fold above the standard deviation of the assay, were determined for each compound. Compound toxicity was determined in parallel using a similar dilution series of compound with 30 μL per well of cells transfected with the CMV-TLR7 construct alone (1.67×10^5 cells/mL), in 384-well plates. Cell viability was measured after 6 hours incubation at 37° C., 5% CO2 by adding 15 μL of ATP lite (Perkin Elmer) per well and reading on a ViewLux ultraHTS microplate imager (Perkin Elmer). Data was reported as CC50.

human TLR7 dIRR2 mutant [6] = assay: Reporter assay for TLR7 activity, HEK293 transfected with mutant TLR7 (dIRR2 deletion) and NFκB-luc; conditions: lowest effective concentration; 24 h transfection
Experimental: as §1, §2, §3

HEK293 NFκB-luc = assay: Reporter assay HEK293 NFκB-luc; conditions: greater than the highest tested concentration
TLR8 = assay: Reporter assay HEK293 TLR8-NFκB-luc; conditions: greater than the highest tested concentration
Experimental: as §2
Briefly, HEK293 cells were grown in culture medium (DMEM supplemented with 10% FCS and 2 mM Glutamine). […] Following 6 hours incubation at 37° C., 5% CO2, the luciferase activity was determined by adding 15 μl of Steady Lite Plus substrate (Perkin Elmer) to each well and readout performed on a ViewLux ultraHTS microplate imager (Perkin Elmer). […] Lowest effective concentrations (LEC) values, defined as the concentration that induces an effect which is at least two fold above the standard deviation of the assay, were determined for each compound. Compound toxicity was determined in parallel using a similar dilution series of compound with 30 μL per well of cells transfected with the CMV-TLR7 construct alone (1.67×10^5 cells/mL), in 384-well plates. Cell viability was measured after 6 hours incubation at 37° C., 5% CO2 by adding 15 μL of ATP lite (Perkin Elmer) per well and reading on a ViewLux ultraHTS microplate imager (Perkin Elmer). […]

T1 sequence (Q9NYK1 27-1049): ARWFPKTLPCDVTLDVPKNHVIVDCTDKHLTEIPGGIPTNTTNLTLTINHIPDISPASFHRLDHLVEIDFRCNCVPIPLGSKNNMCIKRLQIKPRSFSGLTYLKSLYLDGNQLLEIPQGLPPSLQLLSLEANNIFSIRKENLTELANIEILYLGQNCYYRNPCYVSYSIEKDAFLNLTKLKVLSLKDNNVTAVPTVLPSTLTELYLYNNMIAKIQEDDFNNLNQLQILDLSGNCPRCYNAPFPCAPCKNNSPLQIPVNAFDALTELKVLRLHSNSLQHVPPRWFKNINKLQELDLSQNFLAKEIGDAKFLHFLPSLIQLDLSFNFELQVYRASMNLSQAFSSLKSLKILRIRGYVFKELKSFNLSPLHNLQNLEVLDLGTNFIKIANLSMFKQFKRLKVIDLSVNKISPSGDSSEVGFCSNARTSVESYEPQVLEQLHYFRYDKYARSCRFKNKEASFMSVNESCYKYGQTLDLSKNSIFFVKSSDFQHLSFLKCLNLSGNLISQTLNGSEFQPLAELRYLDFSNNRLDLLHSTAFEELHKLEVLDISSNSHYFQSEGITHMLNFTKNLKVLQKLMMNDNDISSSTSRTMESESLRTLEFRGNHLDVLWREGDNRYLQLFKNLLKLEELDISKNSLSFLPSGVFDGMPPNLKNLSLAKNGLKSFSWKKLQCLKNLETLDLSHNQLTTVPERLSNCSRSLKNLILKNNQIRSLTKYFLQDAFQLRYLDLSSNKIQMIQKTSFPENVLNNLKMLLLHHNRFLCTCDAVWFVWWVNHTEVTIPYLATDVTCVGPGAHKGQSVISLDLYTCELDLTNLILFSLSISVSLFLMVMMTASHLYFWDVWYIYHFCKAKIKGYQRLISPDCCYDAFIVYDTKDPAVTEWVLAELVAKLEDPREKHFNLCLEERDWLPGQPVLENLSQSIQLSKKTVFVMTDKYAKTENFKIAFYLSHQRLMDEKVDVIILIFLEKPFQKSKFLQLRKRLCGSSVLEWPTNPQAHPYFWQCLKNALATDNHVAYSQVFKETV

SMILES: CN(C)CCOc1ccc(Cn2c(=O)[nH]c3c(N)nc(-c4nc(C5CC5)c[nH]4)nc32)cn1 [Compound 54]
- EC50 [1]: 0.05 µM
- minimal effective concentration [2]: 0.07 µM
- TLR7-dIRR2_LEC 48 h (human TLR7 dIRR2 mutant [3]): 5.65 µM
- TLR7-wt_LEC 48 h (human TLR7 [4]): 16.1 µM

SMILES: Nc1nc(-c2nc(C3CC3)c[nH]2)nc2c1[nH]c(=O)n2Cc1ccc2c(c1)CNCC2 [Compound 60]
- EC50 [1]: 0.034 µM
- minimal effective concentration [2]: 0.019 µM
- TLR7-dIRR2_LEC 48 h (human TLR7 dIRR2 mutant [3]): 1.25 µM
- TLR7-wt_LEC 48 h (human TLR7 [4]): >25 µM

SMILES: COCCc1nnc(-c2nc(N)c3[nH]c(=O)n(Cc4ccccc4)c3n2)o1 [Compound 34]
- EC50 [1]: 0.69 µM
- minimal effective concentration [2]: 0.49 µM
- TLR7-dIRR2_LEC 48 h (human TLR7 dIRR2 mutant [3]): 1.21 µM
- TLR7-wt_LEC 48 h (human TLR7 [4]): >25 µM

SMILES: Nc1nc(-c2ncc[nH]2)nc2c1[nH]c(=O)n2CC1CCOCC1 [Compound 63]
- EC50 [1]: 6.72 µM
- minimal effective concentration [2]: 4.39 µM
- TLR7-dIRR2_LEC 48 h (human TLR7 dIRR2 mutant [3]): 2.58 µM
- TLR7-wt_LEC 48 h (human TLR7 [4]): >25 µM

SMILES: Nc1nc(-c2cnco2)nc2c1[nH]c(=O)n2Cc1ccccc1 [Compound 32]
- EC50 [1]: 1.51 µM
- minimal effective concentration [2]: 0.97 µM
- TLR7-dIRR2_LEC 48 h (human TLR7 dIRR2 mutant [3]): 0.97 µM
- TLR7-wt_LEC 48 h (human TLR7 [4]): 6.5 µM

SMILES: Nc1nc(-c2nc(C3CCCC3)c[nH]2)nc2c1[nH]c(=O)n2Cc1ccccc1 [Compound 3]
- EC50 [1]: 14 µM
- TLR7-wt_LEC 24 h (human TLR7 [5]): >24.59 µM
- TLR7-dIRR2_LEC 24 h (human TLR7 dIRR2 mutant [6]): 7.67 µM

SMILES: CCc1[nH]c(-c2nc(N)c3[nH]c(=O)n(Cc4ccccc4)c3n2)nc1C1CC1 [Compound 6]
- EC50 [1]: 0.053 µM
- LEC on HEK293 NFκB-luc (HEK293 NFκB-luc): > 10 µM
- TLR7-dIRR2_LEC 24 h (human TLR7 dIRR2 mutant [6]): 0.66 µM
- minimal effective concentration [2]: 0.04 µM
- TLR7-dIRR2_LEC 48 h (human TLR7 dIRR2 mutant [3]): 0.34 µM
- LEC on HEK293 TLR8-NFκB-luc (TLR8): > 10 µM
- TLR7-wt_LEC 48 h (human TLR7 [4]): 6.32 µM

SMILES: Cc1cnn(-c2nc(N)c3[nH]c(=O)n(Cc4ccccc4)c3n2)c1 [Compound 35]
- EC50 [1]: 0.17 µM
- minimal effective concentration [2]: 0.1 µM
- TLR7-dIRR2_LEC 48 h (human TLR7 dIRR2 mutant [3]): 0.033 µM
- TLR7-wt_LEC 48 h (human TLR7 [4]): 0.36 µM

SMILES: Nc1nc(-c2ncc[nH]2)nc2c1[nH]c(=O)n2Cc1ccc2c(c1)CNCC2 [Compound 24]
- EC50 [1]: 0.046 µM
- minimal effective concentration [2]: 0.03 µM
- TLR7-dIRR2_LEC 48 h (human TLR7 dIRR2 mutant [3]): 0.11 µM
- TLR7-wt_LEC 48 h (human TLR7 [4]): 1.81 µM

SMILES: Nc1nc(-c2ncc[nH]2)nc2c1[nH]c(=O)n2Cc1cccc(CN2CCCC2)c1 [Compound 25]
- EC50 [1]: 0.006 µM
- minimal effective concentration [2]: 0.007 µM
- TLR7-dIRR2_LEC 48 h (human TLR7 dIRR2 mutant [3]): 0.39 µM
- TLR7-wt_LEC 48 h (human TLR7 [4]): 2.46 µM
